Laboratory results as given in PubChem BioAssay (NCI).
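Growth conditions: 96-well plates. Treatment: test compound, 48 hours, 5 concentrations. Analysis: linear interpolation between bracketing concentrations; unreached endpoints set to highest concentration. TGI is the concentration that stops growth completely.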

Key:
Assay in all cases: growth of human tumour cells (NCI), 48 h
SK-MEL-5 melanoma = tested on: SK-MEL-5 melanoma
KM12 colon = tested on: KM12 colon
PC-3 prostate = tested on: PC-3 prostate
SF-268 CNS = tested on: SF-268 CNS
UACC-257 melanoma = tested on: UACC-257 melanoma
SK-OV-3 ovarian = tested on: SK-OV-3 ovarian
DU-145 prostate = tested on: DU-145 prostate
A549 NSCLC = tested on: A549 NSCLC
EKVX NSCLC = tested on: EKVX NSCLC
HL-60(TB) leukemia = tested on: HL-60(TB) leukemia
OVCAR-4 ovarian = tested on: OVCAR-4 ovarian
SK-MEL-2 melanoma = tested on: SK-MEL-2 melanoma
OVCAR-5 ovarian = tested on: OVCAR-5 ovarian
HS 578T breast = tested on: HS 578T breast
ACHN renal = tested on: ACHN renal
M14 melanoma = tested on: M14 melanoma
UACC-62 melanoma = tested on: UACC-62 melanoma
NCI/ADR-RES ovarian = tested on: NCI/ADR-RES ovarian
MDA-MB-231 breast = tested on: MDA-MB-231 breast
NCI-H226 lung = tested on: NCI-H226 lung

Compound	TGI (SK-MEL-5 melanoma)	TGI (KM12 colon)	TGI (PC-3 prostate)	TGI (SF-268 CNS)	TGI (UACC-257 melanoma)	TGI (SK-OV-3 ovarian)	TGI (DU-145 prostate)	TGI (A549 NSCLC)	TGI (EKVX NSCLC)	TGI (HL-60(TB) leukemia)	TGI (OVCAR-4 ovarian)	TGI (SK-MEL-2 melanoma)	TGI (OVCAR-5 ovarian)	TGI (HS 578T breast)	TGI (ACHN renal)	TGI (M14 melanoma)	TGI (UACC-62 melanoma)	TGI (NCI/ADR-RES ovarian)	TGI (MDA-MB-231 breast)	TGI (NCI-H226 lung)
CCCSc1ccc2[nH]c(/N=C/c3ccco3)cc2c1	32.6 µM	> 100 µM	> 100 µM	> 100 µM	> 100 µM	> 100 µM	> 100 µM	> 100 µM	68.8 µM	84.4 µM	> 100 µM	59 µM	> 100 µM	> 100 µM	> 100 µM	> 100 µM	> 100 µM	> 100 µM	–	–
C1CNCCNCCN1	> 100 µM	> 100 µM	> 100 µM	> 100 µM	> 100 µM	–	> 100 µM	> 100 µM	> 100 µM	> 100 µM	> 100 µM	> 100 µM	> 100 µM	> 100 µM	> 100 µM	> 100 µM	> 100 µM	> 100 µM	> 100 µM	> 100 µM
COC(=O)[C@H](Cc1ccccc1)NC(=O)[C@H](Cc1ccccc1)NC(=O)[C@@H]1CCCN1C(=O)N[C@H]1C2C=CC(C2)C1C(=O)N1CCC[C@H]1C(=O)N[C@@H](C)C(=O)N[C@H](C(=O)OC)C(C)C (some centres not stated)	> 100 µM	> 100 µM	> 100 µM	> 100 µM	> 100 µM	> 100 µM	> 100 µM	> 100 µM	> 100 µM	> 100 µM	> 100 µM	–	> 100 µM	> 100 µM	> 100 µM	> 100 µM	> 100 µM	> 100 µM	> 100 µM	> 100 µM
Cc1cc(C)cc(Nc2cc(=O)[nH]c(=O)[nH]2)c1	> 100 µM	> 100 µM	> 100 µM	> 100 µM	> 100 µM	–	> 100 µM	> 100 µM	> 100 µM	> 100 µM	> 100 µM	–	> 100 µM	> 100 µM	> 100 µM	> 100 µM	–	> 100 µM	> 100 µM	> 100 µM
CN(C)c1ccc(C2SCC(=O)N2NS(=O)(=O)c2cccc(C(=O)O)c2)cc1 (configuration not stated)	> 100 µM	> 100 µM	> 100 µM	> 100 µM	> 100 µM	> 100 µM	> 100 µM	> 100 µM	> 100 µM	> 100 µM	–	> 100 µM	> 100 µM	> 100 µM	> 100 µM	> 100 µM	> 100 µM	–	> 100 µM	> 100 µM
O=C(O)CC[N+]1=CCC(c2ccccc2)(c2ccccc2)O1	> 100 µM	–	> 100 µM	> 100 µM	> 100 µM	> 100 µM	> 100 µM	> 100 µM	> 100 µM	–	> 100 µM	> 100 µM	> 100 µM	> 100 µM	> 100 µM	> 100 µM	> 100 µM	–	> 100 µM	> 100 µM
Cc1cc(C2(O)C=C(C(C)(C)C)C(=O)C(C(C)(C)C)=C2)c(C)cc1C1(O)C=C(C(C)(C)C)C(=O)C(C(C)(C)C)=C1	> 100 µM	> 100 µM	> 100 µM	> 100 µM	> 100 µM	> 100 µM	> 100 µM	> 100 µM	> 100 µM	> 100 µM	> 100 µM	> 100 µM	> 100 µM	–	> 100 µM	> 100 µM	> 100 µM	> 100 µM	> 100 µM	> 100 µM
Nc1ccc(N=Nc2ccccc2)cc1	> 100 µM	> 100 µM	> 100 µM	–	> 100 µM	> 100 µM	–	> 100 µM	> 100 µM	> 100 µM	> 100 µM	68.4 µM	> 100 µM	> 100 µM	> 100 µM	> 100 µM	> 100 µM	> 100 µM	88 µM	> 100 µM
CCOC(=O)c1ccc(N2C(=S)N(C(=O)c3ccccc3)C(=Nc3ccccc3)C2=Nc2ccccc2)cc1	> 100 µM	> 100 µM	> 100 µM	> 100 µM	> 100 µM	> 100 µM	> 100 µM	> 100 µM	> 100 µM	–	–	> 100 µM	> 100 µM	> 100 µM	> 100 µM	> 100 µM	> 100 µM	> 100 µM	–	52.7 µM
Nc1c(Cl)ncnc1N[C@@H]1C[C@H]1CO	> 100 µM	> 100 µM	> 100 µM	> 100 µM	> 100 µM	–	> 100 µM	> 100 µM	> 100 µM	> 100 µM	> 100 µM	> 100 µM	> 100 µM	> 100 µM	> 100 µM	> 100 µM	> 100 µM	> 100 µM	> 100 µM	–
NC(=O)NNC(=O)c1nc[nH]c1[N+](=O)[O-]	> 100 µM	–	> 100 µM	> 100 µM	> 100 µM	> 100 µM	> 100 µM	> 100 µM	> 100 µM	–	> 100 µM	> 100 µM	> 100 µM	> 100 µM	–	> 100 µM	> 100 µM	> 100 µM	> 100 µM	> 100 µM
CCCCCC(=O)NC(=S)Nc1nn[nH]n1	> 100 µM	> 100 µM	> 100 µM	> 100 µM	> 100 µM	> 100 µM	> 100 µM	> 100 µM	> 100 µM	> 100 µM	> 100 µM	> 100 µM	> 100 µM	> 100 µM	–	> 100 µM	> 100 µM	–	> 100 µM	–
CC1(CF)SCc2nc3ccccc3n21 (configuration not stated)	> 100 µM	> 100 µM	> 100 µM	> 100 µM	> 100 µM	> 100 µM	> 100 µM	> 100 µM	> 100 µM	> 100 µM	–	–	> 100 µM	> 100 µM	> 100 µM	> 100 µM	> 100 µM	> 100 µM	> 100 µM	> 100 µM
